From patent US6602899B1, “β-D-5 thioxylose derivatives, preparation method and therapeutic use” (Fournier Industrie & Sante, priority 1999, dated 2003)
Each block holds one compound with its values, some of them ahead of it.

Key:
venous thrombosis = venous thrombosis test (venous stasis under hypercoagulation, WESSLER technique, activated factor X); format: in vivo, Wistar male rats; settings: rat; for inhibition in vivo at 5 mg/kg: iv, i.v. in PEG 400, 5 mg/kg, thrombosis induced 2 h after administration, read-out: Activity i.v. T = 2 h (percentage inhibition relative to thrombus weight with vehicle); for Activity p.o. T = 4 h (percentage inhibition of thrombus weight): thrombosis induced 4 h after administration; for Activity p.o. T = 8 h (percentage inhibition of thrombus weight): thrombosis induced 8 h after administration
Protocol: The test products are administered either orally (tubage) dissolved or suspended in PEG 400, or by intravenous injection dissolved in PEG 400. The concentration of the compounds is calculated so that the amount of solution absorbed is 2 ml/kg by oral administration and 1 ml/kg by intravenous injection. The compounds are generally administered intravenously at a dose of 5 mg/kg. If the test is performed after oral administration, the amount administered is calculated so as to correspond to about 2.10^−5 mol/kg. Thrombosis is induced at a time T (2 h, 4 h or 8 hours) after the administration of the product, and the thrombus formed is removed and weighed. To induce this thrombosis, a venous stasis is created under hypercoagulation according to the technique described by WESSLER (J. Applied Physiol. 1959, pp. 943-946), the hypercoagulating agent used being a solution of activated factor X (Xa) having a concentration of 7.5 nKat/kg, supplied by Biogenic. The results obtained, expressed as the percentage inhibition calculated relative to the weight of a thrombus obtained in the absence of active principle in the vehicle, are collated in Table I below. The activity of the test compounds was checked at different doses after they had been administered either orally (p.o.) or intravenously (i.v.). The thrombosis was induced 4 hours or 8 hours after oral administration of the compound and 2 hours after intravenous administration.

[1] = solubility in injectable solvents; format: physicochemical; settings: especially water and PEG 400
venous thrombus = settings: administered orally, doses of 6 mg/kg and above; cited from earlier work

Structure (SMILES): CCCOC(=O)O[C@@H]1[C@@H](OC(=O)OCCC)[C@H](OC(=O)OCCC)CS[C@H]1Oc1ccc2c(C)cc(=O)oc2c1 [Ex. 3, 4-Methyl-2-oxo-2H-1-benzopyran-7-yl 2,3,4-tri-O-propoxycarbonyl-5-thio-β-D-xylopyranoside]
inhibition in vivo at 5 mg/kg (venous thrombosis): 71%

Structure (SMILES): COC(=O)O[C@@H]1[C@@H](OC(=O)OC)[C@H](OC(=O)OC)CS[C@H]1Oc1ccc2c(C)cc(=O)oc2c1 [Ex. 1, 4-Methyl-2-oxo-2H-1-benzopyran-7-yl 2,3,4-tri-O-methoxycarbonyl-5-thio-β-D-xylopyranoside]
inhibition in vivo at 5 mg/kg (venous thrombosis): 84%
Activity p.o. T = 4 h (percentage inhibition of thrombus weight) (venous thrombosis; p.o. in PEG 400, 9 mg/kg): 87%
Activity p.o. T = 8 h (percentage inhibition of thrombus weight) (venous thrombosis; p.o. in PEG 400, 9 mg/kg): 66%

Structure (SMILES): Cc1cc(=O)oc2cc(O[C@@H]3SC[C@@H](OC(=O)OCCO)[C@H](OC(=O)OCCO)[C@H]3OC(=O)OCCO)ccc12 [Ex. 9, 4-Methyl-2-oxo-2H-1-benzopyran-7-yl 2,3,4-tri-O-(2-hydroxyethoxycarbonyl)-5-thio-β-D-xylopyranoside]
inhibition in vivo at 5 mg/kg (venous thrombosis): 27%
Activity p.o. T = 4 h (percentage inhibition of thrombus weight) (venous thrombosis; p.o. in PEG 400, 11 mg/kg): 93%
Activity p.o. T = 8 h (percentage inhibition of thrombus weight) (venous thrombosis; p.o. in PEG 400, 11 mg/kg): 29%

Structure (SMILES): CCOC(=O)O[C@@H]1[C@@H](OC(=O)OCC)[C@H](OC(=O)OCC)CS[C@H]1Oc1ccc2c(C)cc(=O)oc2c1 [Ex. 2, 4-Methyl-2-oxo-2H-1-benzopyran-7-yl 2,3,4-tri-O-ethoxycarbonyl-5-thio-β-D-xylopyranoside]
inhibition in vivo at 5 mg/kg (venous thrombosis): 73%

Structure (SMILES): COCCOC(=O)O[C@@H]1[C@@H](OC(=O)OCCOC)[C@H](OC(=O)OCCOC)CS[C@H]1Oc1ccc2c(C)cc(=O)oc2c1 [Ex. 6, 4-Methyl-2-oxo-2H-1-benzopyran-7-yl 2,3,4-tri-O-(2-methoxyethoxycarbonyl)-5-thio-β-D-xylopyranoside]
inhibition in vivo at 5 mg/kg (venous thrombosis): 52%

Structure (SMILES): CCCCOC(=O)O[C@@H]1[C@@H](OC(=O)OCCCC)[C@H](OC(=O)OCCCC)CS[C@H]1Oc1ccc2c(C)cc(=O)oc2c1 [Ex. 4, 4-Methyl-2-oxo-2H-1-benzopyran-7-yl 2,3,4-tri-O-butoxycarbonyl-5-thio-β-D-xylopyranoside]
inhibition in vivo at 5 mg/kg (venous thrombosis): 60%

Structure (SMILES): C=CCC(=O)O[C@@H]1[C@@H](OC(=O)CC=C)[C@H](OC(=O)CC=C)CS[C@H]1Oc1ccc2c(C)cc(=O)oc2c1 [Ex. 7, 4-Methyl-2-oxo-2H-1-benzopyran-7-yl 2,3,4-tri-O-(2-propenylcarbonyl)-5-thio-β-D-xylopyranoside]
inhibition in vivo at 5 mg/kg (venous thrombosis): 66%

Structure (SMILES): C=COC(=O)O[C@@H]1[C@@H](OC(=O)OC=C)[C@H](OC(=O)OC=C)CS[C@H]1Oc1ccc2c(C)cc(=O)oc2c1 [Ex. 8, 4-Methyl-2-oxo-2H-1-benzopyran-7-yl 2,3,4-tri-O-(ethenyloxycarbonyl)-5-thio-β-D-xylopyranoside]
inhibition in vivo at 5 mg/kg (venous thrombosis): 65%

Structure (SMILES): Cc1cc(=O)oc2cc(O[C@@H]3SC[C@@H](OC(=O)OCC(C)C)[C@H](OC(=O)OCC(C)C)[C@H]3OC(=O)OCC(C)C)ccc12 [Ex. 5, 4-Methyl-2-oxo-2H-1-benzopyran-7-yl 2,3,4-tri-O-(2-methylpropoxycarbonyl)-5-thio-β-D-xylopyranoside]
inhibition in vivo at 5 mg/kg (venous thrombosis): 65%

solubility in injectable solvents [1]: insoluble
Structure (SMILES): Cc1cc(=O)oc2cc(O[C@@H]3SC[C@@H](O)[C@H](O)[C@H]3O)ccc12 [D, 4-methyl-2-oxo-2H-1-benzopyran-7-yl 5-thio-β-D-xylopyranoside, reference compound]
reduction of the formation of a venous thrombus (venous thrombus): more than 80%
Activity p.o. T = 4 h (percentage inhibition of thrombus weight) (venous thrombosis; p.o. in PEG 400, 6 mg/kg): 84%
Activity p.o. T = 8 h (percentage inhibition of thrombus weight) (venous thrombosis; p.o. in PEG 400, 6 mg/kg): 15%
